Laboratory results as given in PubChem BioAssay (NCI).
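At the GI50, growth is halved. Definition used: TGI = concentration required for complete inhibition of growth.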

How the values were obtained:
Experiment in all cases: NCI-60 cell line screen, 384-well format
CAKI-1 renal = system: CAKI-1 renal
COLO 205 colon = system: COLO 205 colon
DU-145 prostate = system: DU-145 prostate
HT29 colon = system: HT29 colon
LOX IMVI melanoma = system: LOX IMVI melanoma
MCF7 breast = system: MCF7 breast
MDA-MB-231 breast = system: MDA-MB-231 breast
NCI-H322M lung = system: NCI-H322M lung
NCI-H460 NSCLC = system: NCI-H460 NSCLC
SK-MEL-2 melanoma = system: SK-MEL-2 melanoma
SNB-19 CNS = system: SNB-19 CNS
T-47D breast = system: T-47D breast
UO-31 renal = system: UO-31 renal

Structure (SMILES)	GI50 (CAKI-1 renal) [µM]	TGI (CAKI-1 renal) [µM]	GI50 (COLO 205 colon) [µM]	TGI (COLO 205 colon) [µM]	GI50 (DU-145 prostate) [µM]	TGI (DU-145 prostate) [µM]	GI50 (HT29 colon) [µM]	TGI (HT29 colon) [µM]	GI50 (LOX IMVI melanoma) [µM]	TGI (LOX IMVI melanoma) [µM]	GI50 (MCF7 breast) [µM]	TGI (MCF7 breast) [µM]	GI50 (MDA-MB-231 breast) [µM]	TGI (MDA-MB-231 breast) [µM]	GI50 (NCI-H322M lung) [µM]	TGI (NCI-H322M lung) [µM]	GI50 (NCI-H460 NSCLC) [µM]	TGI (NCI-H460 NSCLC) [µM]	GI50 (SK-MEL-2 melanoma) [µM]	TGI (SK-MEL-2 melanoma) [µM]	further results
C=CC(=O)N[C@H]1CCOC[C@H]1Nc1ncc2cc(-c3c(Cl)c(OC)cc(OC)c3Cl)ccc2n1	12	82.4	18.2	46.1	27.4	> 100	14	96.2	13	27.3	11.9	46.4	9.96	> 78.7	27.7	> 100	11.8	25.7	15.9	30.4	GI50 (SNB-19 CNS): 19.2 µM; TGI (SNB-19 CNS): 55.7 µM; GI50 (T-47D breast): 5.24 µM; TGI (T-47D breast): 23 µM; GI50 (UO-31 renal): 23.3 µM; TGI (UO-31 renal): 98 µM
c1cn2cc(-c3ccc4cn[nH]c4c3)nc(Nc3ccc(N4CCOCC4)cc3)c2n1	11.9	25.3	37.8	> 100	10	22.7	28.1	> 100	15.4	36.6	8.62	30.2	10.1	21.9	12.3	37.5	11.1	24.6	1.67	8.99	GI50 (SNB-19 CNS): 8.81 µM; TGI (SNB-19 CNS): 21.4 µM; GI50 (T-47D breast): 3.73 µM; TGI (T-47D breast): 21.2 µM; GI50 (UO-31 renal): 12.4 µM; TGI (UO-31 renal): 32 µM
